The subject of experiment [1] is HS-Sch-2. The experiment in a line: % inhibition of CellTiter-Glo viability at highest tested concentration (72 h), relative to DMSO and benzethonium chloride controls; higher = more inhibition. A digest of the protocol: (§1)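 MPNST cell lines and primary human Schwann cells (750–1000 cells per well) went into 384-well plates preprinted with each compound at five concentrations in 10-fold steps. Plates were incubated 72 h at 37 °C, 5% CO2. Viability was read as CellTiter-Glo ATP luminescence, scaled between vehicle and positive-control wells, with duplicates averaged where present. Percent inhibition is at the top concentration; drug sensitivity score and relative IC50 (censored at top concentration) come from four-parameter logistic fits.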
Background: ATP-based viability assays read luminescence as a measure of living cells.

The subject of experiment [2] is HS-PSS. The experiment is described as above. In short, it runs like this:
as §1

For experiment [3], the system named is YST-1. The experiment is described as above. A digest of the protocol:
as §1

The test system of experiment [4] is HS-PSS. Nature of the experiment: drug sensitivity score (DSS, CellTox-Green cytotoxicity, 72 h) (DSS (dimensionless)); higher = more cytotoxic; extreme values may be limits of the assay. A digest of the protocol:
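MPNST cell lines and primary human Schwann cells were incubated 72 h at 37 °C in 384-well plates holding five 10-fold compound dilutions. CellTox-Green was added before seeding at a final 1:1000 dilution and reported fluorescence from DNA released by disrupted cells. Signals were scaled to vehicle and positive-control wells, and cultures failing plate quality control were dropped. Drug sensitivity score and relative IC50 come from four-parameter logistic fits, with IC50 censored at the top concentration.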

For experiment [5], the system named is HS-Sch-2. Nature of the experiment: drug sensitivity score (DSS, CellTiter-Glo viability, 72 h) (DSS (dimensionless)); higher = more sensitive; extreme values may be limits of the assay. A digest of the protocol: as §1
In experiment [6] the test system is HS-PSS. Described as above. In short, it runs like this:
as §1

The test system of experiment [7] is YST-1. Described as above. A digest of the protocol: as §1

`C=CC(=O)Nc1cccc(Nc2nc(Nc3ccc(N4CCN(C(C)=O)CC4)cc3OC)ncc2C(F)(F)F)c1` [Rociletinib] (max concentration tested 10000 nM): the % inhibition (commonly the relative decrease from the control value, in per cent) with HS-Sch-2 [1] came out at 80.9%; in the experiment with HS-PSS [2] it was 86.4%; in the experiment with YST-1 [3], 95.2%. Besides, the drug sensitivity score with HS-PSS [4] amounted to 3.25; with HS-Sch-2 [5] it was 4.99; in the experiment with HS-PSS [6], 4.91; in the experiment on YST-1 [7], 8.73.

Consider `O=C(CCCCCCNC(=O)c1cnc(N(c2ccccc2)c2ccccc2)nc1)NO` [Rocilinostat] (max concentration tested 10000 nM), for which the “% inhibition” value in the experiment with HS-Sch-2 [1] came to 81.2%; in the experiment on HS-PSS [2], 58.4%; with YST-1 [3], 89.5%. Further, the drug sensitivity score in the experiment on HS-PSS [4] turned out to be 0.39; in the experiment on HS-Sch-2 [5] it was 6.66; in the experiment with HS-PSS [6], 3.58; in the experiment on YST-1 [7], 9.5.

Take `C/C=C1\NC(=O)[C@H]2CSSCC/C=C/[C@H](CC(=O)N[C@H](C(C)C)C(=O)N2)OC(=O)[C@H](C(C)C)NC1=O` [Romidepsin] (max concentration tested 1000 nM): the “% inhibition” value in the experiment on HS-Sch-2 [1] came out at 100%; in the experiment on HS-PSS [2], 95.4%; with YST-1 [3], 98.5%. For the same molecule, the drug sensitivity score in the experiment with HS-PSS [4] amounted to 3.93; with HS-Sch-2 [5], 33; with HS-PSS [6], 5.59; in the experiment with YST-1 [7], 37.8.

With `COc1ccc(CCc2nc3cc(-c4c(C)noc4C)ccc3n2C[C@H](C)N2CCOCC2)cc1Cl` [SGC-CBP30] (max concentration tested 25000 nM), the entries for the “% inhibition” value in the experiment with HS-Sch-2 [1], in the experiment on HS-PSS [2] and in the experiment with YST-1 [3] were 60.7%, 40.4% and 62%, respectively. Besides, the drug sensitivity score turned out to be 0 in the experiment on HS-PSS [4], 5.7 in the experiment on HS-Sch-2 [5], 1.59 with HS-PSS [6] and 5.72 in the experiment on YST-1 [7].

Take `CN1CCC(CNc2ccc3ncc(-c4cccc(OC(F)(F)F)c4)n3n2)CC1` [SGI-1776] (max concentration tested 10000 nM): the “% inhibition” value with HS-Sch-2 [1], in the experiment on HS-PSS [2] and in the experiment on YST-1 [3] was 101% each time. Also, the drug sensitivity score with HS-PSS [4] is 6.8; in the experiment with HS-Sch-2 [5], 7.09; with HS-PSS [6], 6.88; with YST-1 [7], 9.

As to `Cn1cc(-c2ccc3nnc(Sc4ccc5ncccc5c4)n3n2)cn1` [SGX-523] (max concentration tested 5000 nM), the “% inhibition” value was 5.27% in the experiment with HS-Sch-2 [1], 2.63% with HS-PSS [2] and -2.5% in the experiment with YST-1 [3]. For the same molecule, the drug sensitivity score in the experiment on HS-PSS [4], with HS-Sch-2 [5], in the experiment on HS-PSS [6] and with YST-1 [7] was 0 in each case.

Take `CN(CC(=O)N(Cc1ccc(C2CCCCC2)cc1)c1ccc(C(=O)O)cc1)S(=O)(=O)c1c(F)c(F)c(F)c(F)c1F` [SH-4-54] (max concentration tested 25000 nM): the “% inhibition” value in the experiment with HS-Sch-2 [1] was found to be 93%; with HS-PSS [2], 98.7%; in the experiment on YST-1 [3], 100%. Also, the drug sensitivity score in the experiment on HS-PSS [4] came out at 3.21; in the experiment on HS-Sch-2 [5], 7.18; in the experiment on HS-PSS [6], 5.78; in the experiment with YST-1 [7] it was 10.3.

With `CC(C)NC(=O)COc1cccc(-c2nc(Nc3ccc4[nH]ncc4c3)c3ccccc3n2)c1` [SLx-2119] (max concentration tested 5000 nM), the results for the “% inhibition” value in the experiment on HS-Sch-2 [1], with HS-PSS [2] and in the experiment on YST-1 [3] were 29.4%, 48.7% and 83.7%, respectively. The drug sensitivity score in the experiment on HS-PSS [4] is 0; in the experiment on HS-Sch-2 [5] it was 2.63; in the experiment with HS-PSS [6] it was 3.67; with YST-1 [7] it was 13.6.

Take `CCc1c2c(nc3ccc(O)cc13)-c1cc3c(c(=O)n1C2)COC(=O)[C@]3(O)CC` [SN-38] (max concentration tested 10000 nM): the “% inhibition” value in the experiment with HS-Sch-2 [1] came out at 100%; in the experiment on HS-PSS [2], 77.9%; with YST-1 [3], 99.7%. The drug sensitivity score came out at 20.4 with HS-PSS [4], 36.1 with HS-Sch-2 [5], 22.9 in the experiment on HS-PSS [6] and 36.9 in the experiment on YST-1 [7].

For `O=C(Nc1cccc(Cl)c1)Nc1ncc(CCNc2ncnc3ccsc23)s1` [SNS-314] (max concentration tested 1000 nM), the “% inhibition” value in the experiment on HS-Sch-2 [1] is 53.3%; in the experiment with HS-PSS [2] it was 23.8%; in the experiment with YST-1 [3], 36.5%. Further, the drug sensitivity score stood at 0 with HS-PSS [4], 4.4 in the experiment on HS-Sch-2 [5], 2.01 with HS-PSS [6] and 8.57 with YST-1 [7].

As to `Cc1cc2c(C(=O)NC[C@H](C)c3ccccc3)c(O)c(O)cc2c(O)c1-c1c(C)cc2c(C(=O)NC[C@H](C)c3ccccc3)c(O)c(O)cc2c1O` [Sabutoclax] (max concentration tested 25000 nM), the figures for the “% inhibition” value in the experiment with HS-Sch-2 [1], with HS-PSS [2] and in the experiment with YST-1 [3] were 99.7%, 96.5% and 89.2%, respectively. The drug sensitivity score in the experiment with HS-PSS [4] was 0; in the experiment on HS-Sch-2 [5], 19.6; with HS-PSS [6], 4.91; with YST-1 [7] it was 17.3.

Turning to `CNC(=O)CN1CCC(Oc2cc3c(Nc4cccc(Cl)c4F)ncnc3cc2OC)CC1` [Sapitinib] (max concentration tested 1000 nM), the “% inhibition” value with HS-Sch-2 [1] was found to be 11.1%; in the experiment on HS-PSS [2], 9.33%; with YST-1 [3] it was 15.3%. Moreover, the drug sensitivity score in the experiment with HS-PSS [4] came to 0; in the experiment on HS-Sch-2 [5], 0.17; in the experiment on HS-PSS [6], 0; in the experiment with YST-1 [7], 0.48.

Turning to `O=C(/C=C\n1cnc(-c2cc(C(F)(F)F)cc(C(F)(F)F)c2)n1)NNc1cnccn1` [Selinexor] (max concentration tested 10000 nM), the figures for the “% inhibition” value with HS-Sch-2 [1], in the experiment on HS-PSS [2] and in the experiment with YST-1 [3] were 101%, 72.3% and 95.3%, respectively. Further, the drug sensitivity score with HS-PSS [4] amounted to 1.86; in the experiment on HS-Sch-2 [5] it was 19.8; in the experiment on HS-PSS [6], 11.3; with YST-1 [7], 21.4.

For `Cc1cc(C)c(/C=C2\C(=O)Nc3ccccc32)[nH]1` [Semaxanib] (max concentration tested 10000 nM), the results for the “% inhibition” value in the experiment on HS-Sch-2 [1], in the experiment with HS-PSS [2] and in the experiment on YST-1 [3] were -7.06%, 0.19% and 14.4%, respectively. Further, the drug sensitivity score stood at 4.89 in the experiment on HS-PSS [4], 0 with HS-Sch-2 [5], 0 in the experiment with HS-PSS [6] and 2.84 with YST-1 [7].

For `O=C(O)c1ccc2c(c1)nc(Nc1cccc(Cl)c1)c1ccncc12` [Silmitasertib] (max concentration tested 10000 nM), the figures for the “% inhibition” value with HS-Sch-2 [1], in the experiment on HS-PSS [2] and in the experiment on YST-1 [3] were 52.4%, 66.2% and 97.4%, respectively. Also, the drug sensitivity score in the experiment with HS-PSS [4] was determined as 0; in the experiment with HS-Sch-2 [5], 2.47; in the experiment on HS-PSS [6], 4.36; in the experiment with YST-1 [7] it was 6.93.

Consider `Cc1c(C(=O)Nc2ccc(N3C[C@@H](C)O[C@@H](C)C3)nc2)cccc1-c1ccc(OC(F)(F)F)cc1` [Sonidegib] (max concentration tested 10000 nM), for which the “% inhibition” value in the experiment with HS-Sch-2 [1] was determined as 22.7%; in the experiment on HS-PSS [2], 30.6%; with YST-1 [3], 8.09%. Moreover, the drug sensitivity score came out at 0 in the experiment with HS-PSS [4], 1.21 in the experiment on HS-Sch-2 [5], 3.23 in the experiment on HS-PSS [6] and 0 with YST-1 [7].

Take `C=CC(=O)Nc1cccc(Nc2nc(Nc3ccc(OCCOC)cc3)ncc2F)c1` [Spebrutinib] (max concentration tested 1000 nM): the “% inhibition” value in the experiment on HS-Sch-2 [1] is 12.6%; in the experiment on HS-PSS [2], 20.7%; with YST-1 [3], 15.3%. In addition, the drug sensitivity score came out at 0 in the experiment with HS-PSS [4], 0.45 in the experiment with HS-Sch-2 [5], 0.48 with HS-PSS [6] and 0.89 in the experiment on YST-1 [7].

For the origin of these results see the supplement of paper PMC5579334.
